Laboratory results taken from PubChem BioAssay (NCI).
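GI50: concentration for 50% inhibition of growth. TGI: concentration producing complete growth inhibition.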

Assays:
Experiment in all cases: NCI tumour cell line growth inhibition, 384-well format
[1] = system: KM12 colon
[2] = system: NCI-H522 lung
[3] = system: NCI/ADR-RES ovarian
[4] = system: HS 578T breast
[5] = system: OVCAR-3 ovarian
[6] = system: OVCAR-4 ovarian
[7] = system: SN12C renal
[8] = system: NCI-H322M lung
[9] = system: MOLT-4 leukemia
[10] = system: UACC-62 melanoma
[11] = system: SR leukemia
[12] = system: RXF 393 renal
[13] = system: MCF7 breast
[14] = system: HCC-2998 colon
[15] = system: 786-0 renal
[16] = system: SF-268 CNS
[17] = system: HOP-62 NSCLC
[18] = system: HCT-15 colon
[19] = system: COLO 205 colon
[20] = system: M14 melanoma
[21] = system: MDA-MB-231 breast
[22] = system: HOP-92 NSCLC
[23] = system: MDA-MB-468 breast
[24] = system: U251 glioblastoma
[25] = system: UO-31 renal
[26] = system: OVCAR-5 ovarian
[27] = system: HT29 colon
[28] = system: SK-MEL-28 melanoma
[29] = system: OVCAR-8 ovarian
[30] = system: EKVX NSCLC
[31] = system: MDA-MB-435 melanoma
[32] = system: PC-3 prostate
[33] = system: UACC-257 melanoma
[34] = system: DU-145 prostate
[35] = system: K-562 leukemia
[36] = system: SK-OV-3 ovarian
[37] = system: TK-10 renal
[38] = system: CAKI-1 renal
[39] = system: CCRF-CEM leukemia
[40] = system: IGROV1 ovarian
[41] = system: RPMI-8226 leukemia
[42] = system: HL-60(TB) leukemia
[43] = system: SF-539 CNS
[44] = system: SF-295 CNS
[45] = system: T-47D breast
[46] = system: A498 renal
[47] = system: SNB-75 CNS
[48] = system: A549 NSCLC
[49] = system: LOX IMVI melanoma
[50] = system: NCI-H226 lung
[51] = system: SK-MEL-2 melanoma
[52] = system: NCI-H460 NSCLC
[53] = system: SK-MEL-5 melanoma
[54] = system: BT-549 breast
[55] = system: SNB-19 CNS
[56] = system: NCI-H23 lung
[57] = system: MALME-3M melanoma
[58] = system: HCT-116 colon
[59] = system: ACHN renal
[60] = system: SW-620 colon

Q: Which results are given for Cc1[nH]nc(C(F)(F)F)c1Cc1sc2c(c1C(=O)N1C[C@](C)(O)CO1)c(=O)n(C)c(=O)n2C(C)C?
A: GI50 [1]: > 31.6 µM; TGI [1]: > 100 µM; GI50 [2]: 2.15 µM; TGI [2]: 18.3 µM; GI50 [3]: > 58.7 µM; TGI [3]: > 100 µM; GI50 [4]: 8.39 µM; TGI [4]: > 100 µM; GI50 [5]: > 29.3 µM; TGI [5]: > 100 µM; GI50 [6]: > 100 µM; TGI [6]: > 100 µM; GI50 [7]: > 100 µM; TGI [7]: > 100 µM; GI50 [8]: > 100 µM; TGI [8]: > 100 µM; GI50 [9]: 0.0847 µM; TGI [10]: > 100 µM; GI50 [11]: > 100 µM; TGI [11]: > 100 µM; GI50 [12]: > 27.3 µM; TGI [12]: > 100 µM; GI50 [13]: > 82.5 µM; TGI [13]: > 100 µM; GI50 [14]: > 100 µM; TGI [14]: > 100 µM; GI50 [15]: > 26.9 µM; TGI [15]: > 100 µM; TGI [16]: > 29.6 µM; GI50 [17]: > 27.3 µM; TGI [17]: > 100 µM; GI50 [18]: 12.2 µM; TGI [18]: > 100 µM; GI50 [19]: > 21.8 µM; TGI [19]: > 100 µM; GI50 [20]: > 33.7 µM; TGI [20]: > 100 µM; GI50 [21]: > 100 µM; TGI [21]: > 100 µM; GI50 [22]: > 100 µM; TGI [22]: > 100 µM; GI50 [23]: 4.75 µM; TGI [23]: 66.4 µM; GI50 [24]: > 25 µM; TGI [24]: > 100 µM; GI50 [25]: 12.9 µM; TGI [25]: > 100 µM; GI50 [26]: > 78.6 µM; TGI [26]: > 100 µM; GI50 [27]: > 39.6 µM; TGI [27]: > 100 µM; GI50 [28]: > 100 µM; TGI [28]: > 100 µM; GI50 [29]: > 22.8 µM; TGI [29]: > 100 µM; GI50 [30]: > 100 µM; TGI [30]: > 100 µM; GI50 [31]: > 69 µM; TGI [31]: > 100 µM; GI50 [32]: > 100 µM; TGI [32]: > 100 µM; GI50 [33]: > 100 µM; TGI [33]: > 100 µM; GI50 [34]: > 30.5 µM; TGI [34]: > 100 µM; TGI [35]: > 100 µM; GI50 [36]: > 100 µM; TGI [36]: > 100 µM; GI50 [37]: > 100 µM; TGI [37]: > 100 µM; GI50 [38]: > 47.6 µM; TGI [38]: > 80 µM; GI50 [39]: 0.779 µM; GI50 [40]: > 100 µM; TGI [40]: > 100 µM; GI50 [41]: 20.9 µM; TGI [41]: > 86 µM; TGI [42]: > 29.8 µM; GI50 [43]: > 27 µM; TGI [43]: > 100 µM; GI50 [44]: > 100 µM; TGI [44]: > 100 µM; GI50 [45]: > 100 µM; TGI [45]: > 100 µM; GI50 [46]: > 100 µM; TGI [46]: > 100 µM; GI50 [47]: > 41.9 µM; TGI [47]: > 100 µM; GI50 [48]: > 21.2 µM; TGI [48]: > 100 µM; TGI [49]: > 100 µM; GI50 [50]: > 100 µM; TGI [50]: > 100 µM; GI50 [51]: 39.1 µM; TGI [51]: > 100 µM; TGI [52]: > 100 µM; TGI [53]: > 100 µM; GI50 [54]: > 57 µM; TGI [54]: > 100 µM; GI50 [55]: > 100 µM; TGI [55]: > 100 µM; GI50 [56]: > 27.1 µM; TGI [56]: > 100 µM; GI50 [57]: > 77.9 µM; TGI [57]: > 100 µM; GI50 [58]: > 24.5 µM; TGI [58]: > 100 µM; GI50 [59]: > 33.1 µM; TGI [59]: > 100 µM; GI50 [60]: > 24.4 µM; TGI [60]: > 100 µM
